Laboratory results as given in the supplement of paper PMC9938120.

What was measured:
Assay in all cases: drug sensitivity score (DSS3, normalised partial AUC of % inhibition dose-response) (DSS (score)); higher = more sensitive (stronger inhibition of viability); extreme values may be limits of the assay
FMOC04 = patient-derived high-grade serous ovarian cancer cells; settings: 72 h; library: FO5A; assay format: 2D, 384-well, CellTiter-Glo
In short: (§1)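 Early-passage (under 10) patient-derived ovarian cancer cells were dispensed onto 384-well flat clear-bottom plates pre-plated with compounds at five concentrations spanning a 10,000-fold range, then incubated 72 h at 37 °C, 5% CO2. Viability was read with CellTiter-Glo, and the data were processed in Breeze. The drug sensitivity score is a partial area under the percent-inhibition dose-response curve divided by the log of the upper asymptote, with higher values meaning greater sensitivity.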

FMOC25_2 = patient-derived low-grade serous ovarian cancer cells; settings: 72 h; library: FO5A; assay format: 2D, 384-well, CellTiter-Glo
In short: as §1

FMOC02_3 = patient-derived low-grade serous ovarian cancer cells; settings: 72 h; library: FO5A; assay format: 2D, 384-well, CellTiter-Glo
In short: as §1

FMOC27 = patient-derived low-grade serous ovarian cancer cells; settings: 72 h; library: FO5A; assay format: 2D, 384-well, CellTiter-Glo
In short: as §1

FMOC02_1 = patient-derived low-grade serous ovarian cancer cells; settings: 72 h; library: FO5A; assay format: 2D, 384-well, CellTiter-Glo
In short: as §1

FMOC11 = patient-derived high-grade serous ovarian cancer cells; settings: 72 h; library: FO5A; assay format: 2D, 384-well, CellTiter-Glo
In short: as §1

FMOC28 = patient-derived low-grade serous ovarian cancer cells; settings: 72 h; library: FO5A; assay format: 2D, 384-well, CellTiter-Glo
In short: as §1

FMOC02_2 = patient-derived low-grade serous ovarian cancer cells; settings: 72 h; library: FO5A; assay format: 2D, 384-well, CellTiter-Glo
In short: as §1

FMOC24 = patient-derived high-grade serous ovarian cancer cells; settings: 72 h; library: FO5A; assay format: 2D, 384-well, CellTiter-Glo
In short: as §1

FMOC06 = patient-derived mucinous ovarian cancer cells; settings: 72 h; library: FO5A; assay format: 2D, 384-well, CellTiter-Glo
In short: as §1

FMOC25_1 = patient-derived low-grade serous ovarian cancer cells; settings: 72 h; library: FO4B; assay format: 2D, 384-well, CellTiter-Glo
In short: as §1

FMOC17 = patient-derived low-grade serous ovarian cancer cells; settings: 72 h; library: FO5A; assay format: 2D, 384-well, CellTiter-Glo
In short: as §1

FMOC14 = patient-derived high-grade serous ovarian cancer cells; settings: 72 h; library: FO5A; assay format: 2D, 384-well, CellTiter-Glo
In short: as §1

FMOC03 = patient-derived mucinous ovarian cancer cells; settings: 72 h; library: FO5A; assay format: 2D, 384-well, CellTiter-Glo
In short: as §1

FMOC09 = patient-derived high-grade serous ovarian cancer cells; settings: 72 h; library: FO5A; assay format: 2D, 384-well, CellTiter-Glo
In short: as §1

FMOC22 = patient-derived mucinous ovarian cancer cells; settings: 72 h; library: FO5A; assay format: 2D, 384-well, CellTiter-Glo
In short: as §1

SMILES | drug sensitivity score (FMOC04) | drug sensitivity score (FMOC25_2) | drug sensitivity score (FMOC02_3) | drug sensitivity score (FMOC27) | drug sensitivity score (FMOC02_1) | drug sensitivity score (FMOC11) | drug sensitivity score (FMOC28) | drug sensitivity score (FMOC02_2) | drug sensitivity score (FMOC24) | drug sensitivity score (FMOC06) | drug sensitivity score (FMOC25_1) | drug sensitivity score (FMOC17) | drug sensitivity score (FMOC14) | drug sensitivity score (FMOC03) | drug sensitivity score (FMOC09) | drug sensitivity score (FMOC22)
CN1CCN(c2nc(C3=C(c4c[nH]c5ccccc45)C(=O)NC3=O)c3ccccc3n2)CC1 [Sotrastaurin] | 0 | 0 | 9.9 | 0 | 3 | 2.1 | 0 | 4.3 | 1.85 | 0 | 0 | 3.9 | 0 | 0 | 0 | 0
CS(=O)(=O)CCNCc1ccc(-c2ccc3ncnc(Nc4ccc(OCc5cccc(F)c5)c(Cl)c4)c3c2)o1 [Lapatinib] | 0 | 3.7 | 4.6 | 4.3 | 5.4 | 3.3 | 4 | 6.9 | 0.05 | 1 | 3.6 | 3 | 0.5 | 5.3 | 2.9 | 0
CN(C)C(=N)NC(=N)N [Metformin] | 0 | 0 | 0 | 0 | 0 | 0 | 0 | 0 | 0 | 0 | 0 | 0 | 0 | 0 | 0 | 0
O=C1NC(=O)[C@@H](c2cn3c4c(cccc24)CCC3)[C@@H]1c1c[nH]c2ccccc12 [Tivantinib] | 5.1 | 2.1 | 5 | 2.5 | 4.7 | 2.8 | 3.3 | 3.7 | 0.65 | 2.7 | 4.2 | 4.9 | 0 | 3.1 | 4.3 | 2.5
Cc1ccc(NC(=O)c2ccc(CN3CCN(C)CC3)cc2)cc1Nc1nccc(-c2cccnc2)n1 [Imatinib] | 0 | 0.1 | 1.6 | 0 | 0.3 | 0 | 0 | 1.2 | 2.75 | 0 | 0.3 | 0 | 2 | 0.4 | 0 | 0
CC1(C)NC(=O)N(c2ccc([N+](=O)[O-])c(C(F)(F)F)c2)C1=O [Nilutamide] | 0 | 0 | 0 | 0.1 | 0 | 0 | 0 | 0 | 0.65 | 0 | 0 | 0.5 | 0 | 0 | 0 | 0
Cn1cncc1[C@@](N)(c1ccc(Cl)cc1)c1ccc2c(c1)c(-c1cccc(Cl)c1)cc(=O)n2C [Tipifarnib] | 4.45 | 9.8 | 9.5 | 3.3 | 6.9 | 5.3 | 5.8 | 6.2 | 4.1 | 8.8 | 9.7 | 1.8 | 3.5 | 6 | 2.2 | 5.3
OC[C@H]1O[C@@H](n2cnc3c2N=CNC[C@H]3O)C[C@@H]1O [Pentostatin] | 0 | 0 | 0 | 0 | 0 | 0 | 0 | 0 | 0 | 0 | 0 | 0 | 0 | 0 | 0 | 0
CO[C@@]12[C@H](COC(N)=O)C3=C(C(=O)C(C)=C(N)C3=O)N1C[C@@H]1N[C@@H]12 [Mitomycin C] | 0 | 3.7 | 1.9 | 0.1 | 0 | 1.6 | 0.8 | 0 | 0.45 | 0 | 3.6 | 0 | 0 | 0 | 2.7 | 0
Cc1cc2c(F)c(Oc3ncnn4cc(OC[C@@H](C)O)c(C)c34)ccc2[nH]1 [Brivanib] | 0 | 0 | 0 | 0 | 0 | 0 | 0 | 0 | 0 | 0 | 0 | 0 | 0 | 0 | 0 | 0
C[C@@H]1CN(CC(=O)Nc2ccc3c(c2)Cc2cccc(-c4cc(=O)cc(N5CCOCC5)o4)c2S3)C[C@H](C)O1 | 1.9 | 1 | 0.2 | 0 | 0.5 | 1 | 0 | 0.5 | 5.75 | 0.6 | 3.4 | 0.2 | 0.3 | 0.9 | 0 | 0.8
Nc1nccc(-c2c(-c3ccc(F)cc3)ncn2C2CCCCC2)n1 | 0.05 | 1.8 | 1.1 | 1 | 4.9 | 2.5 | 6.9 | 3.4 | 0.85 | 0.1 | 1.7 | 1.6 | 0.2 | 1.6 | 0 | 0.4
Cc1c(F)cc(C(=O)NC2CC2)cc1-c1ccc(C(=O)NCC(C)(C)C)cn1 [Losmapimod] | 0 | 0 | 0 | 0 | 0.1 | 1.4 | 0 | 0 | 0 | 1 | 0 | 0 | 0 | 0 | 0 | 0
Nc1nc(Nc2ccc3c(c2)CC[C@@H](N2CCCC2)CC3)nn1-c1cc2c(nn1)-c1ccccc1CCC2 [BGB324] | 5.35 | 2.7 | 7.6 | 0.3 | 7.2 | 4.4 | 0.8 | 5 | 7.9 | 3.7 | 5.1 | 3.8 | 6.2 | 2.4 | 0.9 | 1.7
Cc1c(C(=O)Nc2ccc(N3C[C@@H](C)O[C@@H](C)C3)nc2)cccc1-c1ccc(OC(F)(F)F)cc1 [Sonidegib] | 0 | 0 | 1.3 | 0 | 2.1 | 0.4 | 2.1 | 0.1 | 2.45 | 0 | 0 | 3 | 0 | 0 | 0.1 | 0
O=S(=O)(c1cccc2c(O)nccc12)N1CCCNCC1 [Hydroxyfasudil] | 0 | 0 | 0 | 0 | 0 | 0 | 0 | 0 | 1.25 | 0 | 0 | 0 | 0 | 0 | 0 | 0
CC(C)(C)NC(=O)[C@H]1CC[C@H]2[C@@H]3CC[C@H]4NC(=O)C=C[C@]4(C)[C@H]3CC[C@]12C [Finasteride] | 0 | 0 | 0 | 0 | 0 | 0 | 0 | 0 | 1.1 | 0 | 0 | 0 | 0 | 0 | 0 | 0
CNC(=O)c1cc(Oc2ccc(NC(=O)Nc3ccc(Cl)c(C(F)(F)F)c3)c(F)c2)ccn1 [Regorafenib] | 0 | 0.3 | 2.6 | 0.8 | 5.2 | 2.6 | 2.9 | 2 | 1.9 | 2.3 | 0.3 | 1.9 | 2.6 | 3.7 | 1.3 | 4
Nc1nc(OCc2cc(Br)cs2)c2[nH]cnc2n1 [Lomeguatrib] | 0 | 1.4 | 0.4 | 0 | 0 | 0 | 2.6 | 0.8 | 0 | 0 | 0 | 0 | 0 | 0 | 0 | 0
Cc1c(N)nc([C@H](CC(N)=O)NC[C@H](N)C(N)=O)nc1C(=O)N[C@H](C(=O)N[C@H](C)[C@@H](O)[C@H](C)C(=O)N[C@H](C(=O)NCCc1nc(-c2nc(C(=O)NCCC[S+](C)C)cs2)cs1)[C@@H](C)O)[C@@H](OC1OC(CO)C(O)C(O)C1OC1OC(CO)C(O)C(OC(N)=O)C1O)c1cnc[nH]1 (stereo partly drawn) [Bleomycin] | 0 | 3.2 | 8.8 | 2.4 | 3.1 | 3.4 | 2.9 | 4.3 | 5.65 | 3.1 | 9 | 3.4 | 0.1 | 0.7 | 3.2 | 0.8
Cc1ccc(Nc2nccc(N(C)c3ccc4c(C)n(C)nc4c3)n2)cc1S(N)(=O)=O [Pazopanib] | 0 | 3 | 1.5 | 0.6 | 1.3 | 0 | 0 | 0.4 | 3.8 | 0 | 1.1 | 0 | 0 | 0 | 0 | 0
Nc1nc(Cl)nc2c1ncn2[C@H]1C[C@H](O)[C@@H](CO)O1 [Cladribine] | 0.2 | 7.2 | 4 | 2.3 | 7 | 0.8 | 0.3 | 3.3 | 0 | 0.2 | 2.4 | 0.4 | 0 | 0.5 | 1.8 | 3.9
O=C(O)CC1CC(c2ccccc2)=NO1 (stereo not drawn) [VGX-1027] | 0 | 0 | 0 | 0 | 0 | 0 | 0 | 0 | 0 | 0 | 0 | 0 | 0 | 0 | 0 | 0
